Experimental data as given in paper PMC10821035, “Silver and Copper Complexes with Ibuprofen and Caffeine—Preparation and Evaluation of Their Selected Biological Effects” (Molecules, 2024).
Like-named read-outs stand apart in the source and are kept apart here.

Tests used:
[1] = test system: Bacteroides fragilis ATCC 25285; assay: MIC by broth microdilution; type: cell-based
Procedure: (§1) The bacterial strains Bacillus subtilis ATCC 6637, Bacteroides fragilis ATCC 25285, Clostridium bifermentans ATCC 638, Escherichia coli ATCC 35218, Enterococcus faecalis ATCC 29212, Pseudomonas aeruginosa ATCC 27853, Staphylococcus aureus ATCC 6538, Staphylococcus aureus ATCC 25923, Staphylococcus aureus ATCC 29213, Staphylococcus aureus ATCC 43300, and Staphylococcus epidermidis ATCC 12228 were cultured in Mueller–Hinton medium (Oxoid, Basingstoke, UK) at 37 °C for 24 h.
(§2) The minimal inhibitory concentration (MIC) was determined by the broth microdilution method according to the standards of the Clinical and Laboratory Standards Institute (CLSI) manuals in 96-well plates. All stock solutions of the investigated complexes were prepared in DMSO with concentrations of 2 mg mL^−1.
(§3) The MIC was estimated as the lowest concentration of the complex inhibiting bacterial growth. As negative controls, samples without inoculum at each complex concentration were used, whereas the positive control contained the inoculum but not the investigated complexes. Each complex was tested at concentrations between 2.5 and 160 µg mL^−1. The first well contained the highest concentration, and further concentrations were achieved by serial dilution. The assay was performed in duplicate with three repetitions for each bacterial strain.

[2] = test system: Staphylococcus aureus ATCC 6538; assay: MIC by broth microdilution; type: cell-based
Procedure: as §1, §2, §3

[3] = test system: Bacillus subtilis ATCC 6637; assay: MIC by broth microdilution; type: cell-based
Procedure: as §1, §2, §3

[4] = test system: Pseudomonas aeruginosa ATCC 27853; assay: MIC by broth microdilution; type: cell-based
Procedure: as §1, §2, §3

[5] = test system: Escherichia coli ATCC 25218; assay: MIC by broth microdilution; type: cell-based
Procedure: as §1, §2, §3

[6] = test system: Staphylococcus aureus ATCC 25923; assay: MIC by broth microdilution; type: cell-based
Procedure: as §1, §2, §3

[7] = test system: Staphylococcus aureus ATCC 43300; assay: MIC by broth microdilution; type: cell-based
Procedure: as §1, §2, §3

[8] = test system: Staphylococcus aureus ATCC 29213; assay: MIC by broth microdilution; type: cell-based
Procedure: as §1, §2, §3

[9] = test system: Enterococcus faecalis ATCC 29212; assay: MIC by broth microdilution; type: cell-based
Procedure: as §1, §2, §3

[10] = test system: Staphylococcus epidermidis ATCC 12228; assay: MIC by broth microdilution; type: cell-based
Procedure: as §1, §2, §3

[11] = test system: all tested bacterial strains; assay: MIC by broth microdilution, all tested bacterial strains; type: cell-based
Procedure: as §1, §2, §3

[12] = test system: CCD-18Co cells; assay: XTT cytotoxicity/proliferation assay on CCD-18Co fibroblasts; type: cell-based, human; settings: 24 h incubation, XTT test
Procedure: The cell line CCD-18Co (fibroblasts from the colon of a healthy human) was obtained from the American Type Cells Collections (Cat. No. ATCC-CRL-1459). The cells were cultured in Minimum Essential Medium Eagle (MEM) with Earle’s salts, L-glutamine, sodium bicarbonate, and phenol red, supplemented with 10% fetal bovine serum (FBS), 1% non-essential amino acids (NEAAs), and 1% penicillin/streptomycin solution (P/S), all purchased from Sigma-Aldrich (St. Louis, MO, USA). The incubation parameters were 37 ℃, 5% CO2, and 95% relative humidity. The cytotoxicity of the tested complexes (Ag-IBU, Ag-IBU-CAF, Cu-IBU, and Cu-IBU-CAF) was derived using two distinct parameters: (1) tetrazolium salt (XTT) reduction by mitochondrial succinate dehydrogenases using an XTT (Tetrazolium hydroxide) Kit; and (2) neutral red (NR) dye uptake and incorporation within lysosomes using an NR (Neutral Red) Kit. Both kits were produced by Xenometrix AG, Allschwil, Switzerland. The assays were carried out without any substantial changes to the test procedures provided by the manufacturer. The stock solutions of the tested compounds at 20 mg mL^−1 were prepared in DMSO. […] The cells were incubated for the next 3 h, gently mixed, and the absorbance was read at 480 nm with a reference wavelength of 690 nm using the multi-mode plate reader FLUOstar Omega (BMG Labtech, Ortenberg, Germany). […]

[13] = test system: Bacteroides fragilis ATCC 25285; assay: Disc diffusion test (Kirby–Bauer); type: cell-based; settings: concentration according to MIC, 6 mm filter discs
Procedure: as §1
(§4) The antimicrobial sensibility assay was performed according to the Kirby–Bauer method using 6 mm filter discs. Mueller–Hinton agar (Oxoid) was poured onto Petri dishes (90 mm), and saturated filter discs at the concentration determined as the MIC were placed onto the agar surface after distributing bacteria on the agar. The Petri dishes were incubated at 37 °C for 24 h.

[14] = test system: Staphylococcus aureus ATCC 6538; assay: Disc diffusion test (Kirby–Bauer); type: cell-based; settings: concentration according to MIC, 6 mm filter discs
Procedure: as §1, §4

[15] = test system: Bacillus subtilis ATCC 6637; assay: Disc diffusion test (Kirby–Bauer); type: cell-based; settings: concentration according to MIC, 6 mm filter discs
Procedure: as §1, §4

[16] = test system: Pseudomonas aeruginosa ATCC 27853; assay: Disc diffusion test (Kirby–Bauer); type: cell-based; settings: concentration according to MIC, 6 mm filter discs
Procedure: as §1, §4

[17] = test system: Escherichia coli ATCC 25218; assay: Disc diffusion test (Kirby–Bauer); type: cell-based; settings: concentration according to MIC, 6 mm filter discs
Procedure: as §1, §4

[18] = test system: Staphylococcus aureus ATCC 25923; assay: Disc diffusion test (Kirby–Bauer); type: cell-based; settings: concentration according to MIC, 6 mm filter discs
Procedure: as §1, §4

[19] = test system: Staphylococcus aureus ATCC 43300; assay: Disc diffusion test (Kirby–Bauer); type: cell-based; settings: concentration according to MIC, 6 mm filter discs
Procedure: as §1, §4

[20] = test system: Staphylococcus aureus ATCC 29213; assay: Disc diffusion test (Kirby–Bauer); type: cell-based; settings: concentration according to MIC, 6 mm filter discs
Procedure: as §1, §4

[21] = test system: Enterococcus faecalis ATCC 29212; assay: Disc diffusion test (Kirby–Bauer); type: cell-based; settings: concentration according to MIC, 6 mm filter discs
Procedure: as §1, §4

[22] = test system: Staphylococcus epidermidis ATCC 12228; assay: Disc diffusion test (Kirby–Bauer); type: cell-based; settings: concentration according to MIC, 6 mm filter discs
Procedure: as §1, §4

[23] = target: T1, ovine COX-1 (Ovis aries, UniProt P05979); assay: COX (ovine/human) Inhibitor Screening Assay, COX-1; type: biochemical
T1 construct: purchased Cayman Chemicals
T1 sequence (P05979 25-600): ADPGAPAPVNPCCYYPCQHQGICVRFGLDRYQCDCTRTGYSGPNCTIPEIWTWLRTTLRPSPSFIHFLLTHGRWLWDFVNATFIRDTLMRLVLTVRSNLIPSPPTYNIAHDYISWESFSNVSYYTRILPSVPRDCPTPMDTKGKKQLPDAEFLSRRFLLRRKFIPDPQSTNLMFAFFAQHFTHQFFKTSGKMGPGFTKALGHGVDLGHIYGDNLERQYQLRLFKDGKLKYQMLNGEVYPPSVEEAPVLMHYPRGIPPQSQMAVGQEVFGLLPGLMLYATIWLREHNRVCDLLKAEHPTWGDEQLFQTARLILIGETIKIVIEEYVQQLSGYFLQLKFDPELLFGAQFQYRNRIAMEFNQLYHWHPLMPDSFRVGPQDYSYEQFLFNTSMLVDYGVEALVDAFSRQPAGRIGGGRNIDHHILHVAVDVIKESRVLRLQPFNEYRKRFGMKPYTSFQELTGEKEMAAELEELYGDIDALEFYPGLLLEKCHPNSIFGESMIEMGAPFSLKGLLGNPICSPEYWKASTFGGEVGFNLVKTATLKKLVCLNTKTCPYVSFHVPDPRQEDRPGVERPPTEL
Procedure: The ability of the obtained complexes to inhibit cyclooxygenase activity was measured using a COX (ovine/human) Inhibitor Screening Assay Kit (Cayman Chemicals, MI, USA) with ovine COX-1 and human recombinant COX-2. The amount of prostaglandin, dependent on the COX activity, after exposure to the tested complexes was calculated from the standard curve. […] The selectivity indices (SIs) were calculated according to the formula COX-1 IC50/COX-2 IC50.

Row | MIC [1] | MIC [2] | MIC [3] | MIC [4] | MIC [5] | MIC [6] | MIC [7] | MIC [8] | MIC [9] | MIC [10] | MIC ([11]; 2.5–160 µg mL^−1) | SMILES | 24h-IC50 [12] | Inhibition Halo [13] | Inhibition Halo [14] | Inhibition Halo [15] | Inhibition Halo [16] | Inhibition Halo [17] | Inhibition Halo [18] | Inhibition Halo [19] | Inhibition Halo [20] | also measured
1 | 20 µg/mL | 10 µg/mL | 10 µg/mL | 10 µg/mL | 10 µg/mL | 10 µg/mL | 20 µg/mL | 5 µg/mL | 10 µg/mL | 20 µg/mL | ≤ 20 µg/mL | CC(C)Cc1ccc(C(C)C(=O)[O][Ag])cc1 (centres unmarked) [Ag-IBU] | 25.10 µg/mL | 7 mm | 14 mm | 11 mm | 10 mm | 9 mm | 14 mm | 13 mm | 7 mm | Inhibition Halo [21]: 14 mm; Inhibition Halo [22]: 10 mm; IC50 COX-1 [23]: 64.6 µg/mL
2 | 20 µg/mL | 5 µg/mL | 10 µg/mL | 10 µg/mL | 5 µg/mL | 5 µg/mL | 10 µg/mL | 5 µg/mL | 5 µg/mL | 10 µg/mL | ≤ 20 µg/mL | CC(C)Cc1ccc(C(C)C(=O)[O][Ag])cc1.Cn1c(=O)c2c(ncn2C)n(C)c1=O (centres unmarked) [Ag-IBU-CAF] | 33.35 µg/mL | 10 mm | 15 mm | 13 mm | 15 mm | 17 mm | 16 mm | 15 mm | 12 mm | Inhibition Halo [21]: 16 mm; Inhibition Halo [22]: 11 mm; IC50 COX-1 [23]: 62.5 µg/mL
3 | – | – | – | – | – | – | – | – | – | – | – | CC(C)Cc1ccc(C(C)C(=O)O)cc1 (racemic) [IBU, (RS)-2-(4-(2-methylpropyl)phenyl)propanoic acid, reference compound] | – | – | – | – | – | – | – | – | – | MIC ([11]; 2.5–160 µg mL^−1, read-out: MIC): > 200 µg/mL
